Columns and labels:
p53/hDM2 PPI = p53/hDM2 PPI (Homo sapiens, UniProt Q00987); settings: read-out: IC50, decrease of BRET (p53-HaloTag / NanoLuc-hDM2); A375 cells, 6 h
Procedure: A NanoBRET protein:protein interaction system (Promega) was used to detect p53/hDM2 protein-protein interactions by measuring energy transfer from a bioluminescent protein donor to a fluorescent protein acceptor. […] The transfected cells were replated in a white 96-well plate with HaloTag® NanoBRET 618 ligand (100 nM) in Opti-MEM® I reduced serum medium with 4% fetal bovine serum (FBS) and incubated overnight. […] 25 μL of 1X Nano-Glo® substrate in Opti-MEM® I reduced serum medium was added to the wells. The plate was then measured using 460 nm filter and 610 nm filters in SpectraMax M5 microplate reader (Molecular Devices).

p53/hDM2 interaction = system: T1, p53/hDM2 interaction; test: Pull-down assay of p53-Flag/hDM2-myc in A375 cells; format: cell-based, human; settings: 6 h of treatment
T1 construct: host or cells: A375 cells
Procedure: A pull-down assay was conducted to further examine the effect of 1 on the p53/hDM2 interaction. A375 cells were co-transfected with cDNAs encoding p53-Flag and hDM2-myc fusion proteins. After 6 h of treatment with NVP-CGM097 or 1, p53/hDM2 complexes were immunoprecipitated using anti-Flag magnetic beads and analysed by immunoblotting.
A375 cells seeded in 6-well plates were co-transfected with pcDNA-Flag-p53 (Addgene) and pCMV-myc3-hDM2 (Addgene) for 6 h using TurboFect transfection reagent following the instruction from manufacturer. Cells were then cultured in Dulbecco's Modified Eagle's Medium (DMEM) complete medium overnight. Serial dilutions of organometallic compounds in low FBS buffer were placed into the wells, and incubated with cells for additional 6 h. Protein samples were collected, and the concentration in the supernatant was determined with the bicinchoninic acid (BCA) method. The […] of p53/hDM2 in the protein samples were pulled down using anti-Flag magnetic beads to capture the FLAG fusion proteins (Sigma) as previously described. The protein-binding beads were washed three time with TBS buffer (50 mM Tris HCl, 150 mM NaCl, pH 7.4) to remove non-specifically bound proteins, and subsequently subjected to the sodium dodecyl sulfate-polyacrylamide gel electrophoresis (SDS-PAGE) by detection with anti-Flag (1:1000, Sigma-Aldrich) and anti-myc antibodies (1:1000, Beyotime).

[1] = system: p53 and hDM2 protein expression levels; test: Immunoblotting of p53 and hDM2 protein expression in A375 cells; format: cell-based, human; settings: 6 h, up to the highest concentration of 1 μM
Procedure: To assess whether 1 suppressed p53 or hDM2 protein expression levels, resulting in a decrease in the levels of precipitated protein detected in the pull-down assay, an immunoblotting experiment was performed.

Chain of p53/hDM2 PPI (Q00987 whole entry): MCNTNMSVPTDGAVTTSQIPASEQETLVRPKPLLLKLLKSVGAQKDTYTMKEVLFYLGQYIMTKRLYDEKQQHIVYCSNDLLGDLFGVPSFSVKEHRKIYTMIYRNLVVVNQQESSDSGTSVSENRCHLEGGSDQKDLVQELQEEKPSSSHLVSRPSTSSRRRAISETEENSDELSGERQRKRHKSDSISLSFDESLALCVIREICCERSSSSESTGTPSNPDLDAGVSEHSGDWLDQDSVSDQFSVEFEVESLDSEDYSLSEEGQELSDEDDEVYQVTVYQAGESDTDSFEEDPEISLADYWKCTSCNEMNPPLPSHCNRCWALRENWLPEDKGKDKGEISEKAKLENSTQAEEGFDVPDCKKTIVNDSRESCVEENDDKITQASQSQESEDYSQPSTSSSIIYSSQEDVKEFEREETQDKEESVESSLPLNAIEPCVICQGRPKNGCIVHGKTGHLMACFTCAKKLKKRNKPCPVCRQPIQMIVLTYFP

In the case of `CCc1ccc2[c](c1)[Ir-3]13([c]4cc(CC)ccc4-c4cccc[n+]41)([n+]1ccccc1-2)[n+]1ccc(Cl)c2ccc4c(Cl)cc[n+]3c4c21.F[P-](F)(F)(F)(F)F` [Compound 1, 4,7-dichloro-1, 10-phenanthrolinebis(2-(4-ethylphenyl)pyridine)iridium(III) hexafluorophosphate], the IC50 (p53/hDM2 PPI) is reported as ~1000 nM, the “amount of precipitated hDM2 (pulled down with p53-Flag)” value (p53/hDM2 interaction) is reported as “decreased” and the “effect on hDM2 and p53 protein expression levels” value [1] is reported as “no effect”.

Reference: article PMC4924691, “Inhibition of the p53/hDM2 protein-protein interaction by cyclometallated iridium(III) compounds” (Oncotarget, 2016)
